The subject of experiment [1] is Syk phosphorylation in THP-1 cells. Put plainly: Integrin α4β1-induced phosphorylation of Syk in THP-1 cells plated on CS-1. Format: cell-based, human. The procedure: Compound loading of cells was facilitated by glycerol shock ([32], [33]). Methods were first optimized with the cell-impermeable fluorophore Sulfo-Cy5 (see Supplemental Figure S5 ). For analysis of compound inhibition of integrin signaling, 3 × 10^6 THP-1 cells were incubated in 200 ul serum-free RPMI containing 15% glycerol and ceftazidime (at indicated concentrations) for 1 h at 20°C. RPMI (3 ml, room temperature) containing ceftazidime (at indicated concentrations) was added to the cells to dilute the glycerol, and the cells were further incubated for 10 min (room temperature). Cells were then plated onto CS-1-BSA-coated plates for 15 min at 37°C, lysed in RIPA buffer (1% Triton X-100, 50 mM Tris-HCl pH 7.2, 150 mM NaCl, 0.25% NaDOC, 0.05% SDS, 2 mM PMSF, 1 mM NaF, 1 mM Na3VO4, and protease inhibitor cocktail) (AEBSF, Aprotinin, E-64, Bestatin, Leupeptin and Pepstatin; VWR Cat#97063-010), and the lysates were subjected to Western blot as described below.
Syk phosphorylation assays were performed by immobilizing vascular cell adhesion molecule-1 (VCAM)-1 (3 ug/ml), CS-1-BSA (10 ug/ml), or specific monoclonal antibodies (anti-FcγRI mAb 276426, anti-α4β1 mAb 19H8, anti-β2 mAb 76C3, anti-αvβ3 mAb LM609 all at 5 ug/ml) overnight at 4°C in Tris-HCl pH 7.5, 150 mM NaCl, in 6-well plates (non-tissue culture treated, Becton Dickenson, cat# BD351146). […] After electrophoresis, proteins were transferred to nitrocellulose for 1 h 100 V room temperature, blocked in 5% non-fat milk in TBS-T, and probed with the indicated primary antibody at 1:1,000 overnight at 4°C, followed by species-appropriate HRP secondary antibody (Southern Biotech) at 1:5,000 (30 min at room temperature), and detected using Pierce West Pico (Thermo Scientific cat# 34580). […]
Figure 4 Ceftazidime inhibition of integrin signaling. (A) Dose-response curves comparing ceftazidime antagonist activity against integrin β1A, β2, and β3 cytoplasmic domains binding to Syk as measured in AlphaScreen assays. […] Data are expressed as mean fluorescence (Fl520) ± the range from duplicate determinations. […]

For experiment [2], the target named is T1, integrin β1A cytoplasmic domain : GST-Syk(6-370) (Homo sapiens, UniProt P43405).
T1 construct: made in house; host or cells: E. coli BL21(DE3)
Put plainly: AlphaScreen of integrin β1A cytoplasmic domain binding to Syk. Conditions: read-out: antagonist activity against β1 (value without measure name), AlphaScreen. The procedure:
The following HTS assay was developed to identify antagonists of the interaction between the integrin β3 cytoplasmic domain and the non-receptor tyrosine kinase Syk. […] ( Figure 1E ). Background signals in this assay were determined by omitting the integrin β3 peptide. Specific assay conditions are described in Table 1 . […] Then, either dimethyl sulfoxide control or compound was added, followed by biotinylated β3 peptide, and avidin-coated AlphaScreen donor beads. After a 4-h incubation period at room temperature (while protected from light), assays plates were read on an Infinite M1000 (Tecan) multiplate reader (Ex. 680/30; Em. 570/100).
Figure 4 Ceftazidime inhibition of integrin signaling. (A) Dose-response curves comparing ceftazidime antagonist activity against integrin β1A, β2, and β3 cytoplasmic domains binding to Syk as measured in AlphaScreen assays. […] Data are expressed as mean fluorescence (Fl520) ± the range from duplicate determinations. One of three experiments is shown. (B) Flow cytometric analysis of integrin α4β1, β2 subunit, αVβ3, and FcγRI (CD64) on THP-1 cells. Isotype control staining is shown as light gray histograms. Specific integrin staining is shown as darker gray histograms. […] One representative blot is shown (top), along with quantification of three separate experiments normalized to maximum Syk phosphorylation (bottom). Results are expressed as the mean ± SEM.
For orientation: Alpha assays give light when donor and acceptor beads are brought close together.

From article PMC7819857, “Identification of Inhibitors of Integrin Cytoplasmic Domain Interactions With Syk” (Frontiers in Immunology, 2021) come the findings set out here.

Regarding `CC(C)(O/N=C(\C(=O)N[C@@H]1C(=O)N2C(C(=O)[O-])=C(C[n+]3ccccc3)CS[C@H]12)c1csc(N)n1)C(=O)O` [ceftazidime], in experiment [1] (100 µM loaded by glycerol shock, plated on CS-1, immunoprecipitation and western blot), the “integrin α4β1 induced phosphorylation of Syk” value is on record as “inhibited”. Also, the “α4β1-induced phosphorylation of Syk (pY352)” value in experiment [1] (ceftazidime loaded by glycerol shock, indicated doses, cells plated on CS-1) was “inhibited”. The “α4β1 signaling through Syk” value in experiment [1] (drug simply added to THP-1 cells, no glycerol loading) is reported as “negative”. Also, the IC50 in experiment [2] was 1.62 ± 0.41 µM.
